Laboratory results as given in patent US8614227B2, “Salt and solvates of a tetrahydroisoquinoline derivative” (Spinifex Pharmaceuticals Pty Ltd, priority 2010, dated 2013).
Like-named read-outs stand apart in the source and are kept apart here.

Tests used:
in vivo = details: male, beagle, dog, po, 10 mg/kg
Experimental: (§1) The study was designed to compare the PK profiles of the following four forms of Compound 1 administered as single oral capsules in fasted state. […] There was a washout period of 4 days between dosing. The blood samples were collected from each animal at predetermined times on the study Days 1, 4, 8 and 11. The plasma was analyzed for Compound 1 by a validated HPLC-MS/MS assay.
(§2) Descriptive PK parameters were determined by standard model independent methods (Gibaldi and Perrier, 1982) based on the individual plasma concentration-time data. Plasma concentrations were rounded to 3 significant figures. Plasma samples with concentrations below the quantifiable assay limit (BQL<2.00 ng/mL) were assigned values of zero for mean calculations. For PK calculations, BQL was set to zero from the pre-dose time up to the time of the first quantifiable concentration and thereafter was set as missing. Nominal time points were used for all calculations. • Cmax is the observed maximum plasma concentration after dosing. • Tmax is the time to reach Cmax. • T1/2 is apparent half-life calculated by ln(2)/λ where λ is the rate constant fix the log-linear portion of the terminal phase. A minimum of three values in the post-distribution phase of the plasma concentration-time curve is required for calculation of X. • AUC(0-T) is the area under the plasma concentration-time curve from time zero to the time of the last measurable plasma concentration determined using the linear trapezoidal rule. • AUC(0-inf) is the area under the plasma concentration-time curve from time zero to infinity. It is calculated by summing AUC(0-T) and the extrapolated area from the T to infinity.
(§3) PK analyses were performed by noncompartmental analysis using model 200 in WinNonlin Professional 6.1 (Pharsight Corp., Mountain View, Calif.).

[1] = dog, in vivo, po, 10 mg/kg
Experimental: as §1, §2, §3

pKa of Compound 1 = format: physicochemical
[2] = Gravimetric vapour sorption (GVS); format: physicochemical
Experimental: Sorption isotherms were obtained using a Hiden IGASorp moisture sorption analyzer, controlled by CFRSorp software. The sample temperature was maintained at 25° C. by a Huber re-circulating water bath. The humidity was controlled by mixing streams of dry and wet nitrogen, with a total flow rate of 250 mL·min^−1. The relative humidity was measured by a calibrated Vaisala RH probe (dynamic range of 0-95% RH), located near the sample. The weight change, (mass relaxation) of the sample as a function of % RH was constantly monitored by the microbalance (accuracy ±0.001 mg).
Typically 10-20 mg of sample was placed in a tared mesh stainless steel basket under ambient conditions. The sample was loaded and unloaded at 40% RH and 25° C. (typical room conditions).
A moisture sorption isotherm was performed as outlined below (2 scans giving 1 complete cycle). The standard isotherm was performed at 25° C. at 10% RH intervals over a 0-90% RH range.
The software uses a least squares minimization procedure together with a model of the mass relaxation, to predict an asymptotic value. The measured mass relaxation value must be within 5% of that predicted by the software, before the next RH value is selected. The minimum equilibration time was set to 1 hour and the maximum to 4 hours.
The sample was recovered after completion of the isotherm and re-analyzed by XRPD.

[3] = Storage of amine salts at elevated humidity (deliquescence); format: physicochemical
Experimental: The tromethamine salt deliquesced at 25° C./94% RH. As a result, neither of these amine salts were suitable for pharmaceutical development.

COc1ccc2c(c1OCc1ccccc1)C[C@@H](C(=O)O)N(C(=O)C(c1ccccc1)c1ccccc1)C2 [Compound 1, (S)-2-(diphenylacetyl)-1,2,3,4-tetrahydro-6-methoxy-5-(phenylmethoxy)-3-isoquinoline carboxylic acid]
AUC(0-inf) (in vivo; Mean AUC(0-inf)): 680 ± 412 ng·h/mL
half-life (in vivo; Mean harmonic T1/2): 2.11 ± 0.115 h
half-life (in vivo; T1/2): 2.18 h
Tmax (in vivo; Tmax): 1 h
Cmax (in vivo; mean Cmax): 294 ± 238 ng/mL
Tmax (in vivo; median Tmax): 2 h
Plasma concentration of Compound 1, 0.25 h [1]: BQL
Plasma concentration of Compound 1, 0.5 h [1]: BQL
Plasma concentration of Compound 1, 0.75 h [1]: BQL
Plasma concentration of Compound 1, 12 h [1]: BQL
Plasma concentration of Compound 1, 24 h [1]: BQL
Plasma concentration of Compound 1, Predose [1]: BQL
Plasma concentration of Compound 1, Predose ([1]; male, beagle): 0.00 ng/mL
Plasma concentration of Compound 1, 24 h ([1]; male, beagle, 24 h): 0.00 ng/mL
pKa (pKa of Compound 1): ~3.86

COc1ccc2c(c1OCc1ccccc1)C[C@@H](C(=O)[O-])N(C(=O)C(c1ccccc1)c1ccccc1)C2.[Na+] [material from acetonitrile (MeCN)]
GVS weight gained by 40% RH ([2]; from 0% RH to 40% RH): 6%
GVS weight change when taken up to 90% RH ([2]; from 40% RH to 90% RH, 25° C.): about 17%
GVS total weight drop ([2]; from 90% RH to 0% RH): 19%
GVS weight at 0% RH ([2]; taken down to 0% RH, 25° C.): −2%

COc1ccc2c(c1OCc1ccccc1)C[C@@H](C(=O)O)N(C(=O)C(c1ccccc1)c1ccccc1)C2.NC(CO)(CO)CO [tromethamine salt]
behaviour on storage at 25° C./94% RH [3]: deliquesced
